Measured values as given in patent US20120101099A1, “HISTONE DEACETYLASE INHIBITORS” (ANTHEM BIOSCIENCES PRIVATE LIMITED, priority 2009, published 2012).
Counter-ions that a name gives are not always drawn. Like-named read-outs stand apart in the source and are kept apart here.

Experiments:
NCI-H460 = experiment: Cell proliferation assay (MTT); assay type: cell-based; settings: Homo sapiens
In short: (§1)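 MTT read-out, A570 after 3 h dye incubation and DMSO solubilisation. Percentage growth vs T0 plate measured at time of dosing; GI50 interpolated from growth curves.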

PA-1 = experiment: Cell proliferation assay (MTT); assay type: cell-based; settings: Homo sapiens
In short: as §1

SK-OV-3 = experiment: Anti-proliferative activity (GI50); assay type: cell-based; settings: Homo sapiens, Table 9, Ovary
Method: (§2) Cells were seeded in a 96-well cell culture plates at a concentration of 10,000 cells per well and incubated at 37° C. in CO2 incubator.
(§3) Twenty-four hours later cells were treated with different concentrations (100, 10, 1, 0.1, and 0.01 μM) of compound dissolved in DMSO and incubated for 48 hours. For To measurement, 24 hours after seeding the cells, 20 μL of 3-(4.5-dimethyl-2- thiazolyl)-2,5-diphenyl-2H-tetrazolium (MTT) solution per well was added to the T0 plate and incubated for 3 hours at 37° C. in a CO2 incubator.
(§4) The plate containing cells and test compounds was treated similarly after 48 hours of incubation. After 3 hours of MTT addition, well contents were aspirated carefully followed by addition of 100 μL DMSO per well. Plates were agitated to ensure dissolution of the formazan crystals in DMSO and absorbance was read at 570 nm (A570). […] From the percentage growths a dose response curve was generated and GI50 values were interpolated from the growth curves.

Hela-229 = experiment: Anti-proliferative activity (GI50); assay type: cell-based; settings: Homo sapiens, Table 9, Cervix
Method: as §2, §3, §4

HL-60 (AML) cells = experiment: Differentiation assay; assay type: cell-based; settings: Homo sapiens, 72 h; HL-60 cells, 3 days, H2 DCF-DA oxidation
Method: HL-60 (AML) cells were seeded (5×10^4 cells/well) into a 96 well plate and after 24 hrs cells were treated for 3 days with compounds in 8 different concentration (3000, 1000, 300, 100, 30, 10, 3, 1 nM) including control and 60 μM of H2 DCF-DA probe added to the cells. After 2 hours incubation oxidation of H2 DCF-DA was measured.

CYP 3A4 = molecular target: T1, CYP 3A4 (Homo sapiens, UniProt P08684); experiment: Cytochrome-P450 isoforms liability determination; assay type: in vitro ADME; settings: fluorescence based kit
T1 construct: purchased
Method: To determine the test compound liability towards Human cytochrome 450 (hCYP450) Isoforms fluorescence based screening kits.
Brief procedure: 2× test compounds were prepared by dilution with deionized water. A serial dilution of the test compound was done. 2× solution of known inhibitor were used as a positive control. 40 μL of the 2× solution that is prepared was added to the desired wells. Two replicates were included for every compound. 50 μL of the Master premix (premix of CYP450 Baclosomes, reagents and regenerating system) was dispensed into each well. The plate was incubated for 20 min at room temperature to allow the compounds to interact with the CYP450enzymes. The reaction was started by adding 10 μL of the substrate and NADP^+ mixture. The plate was incubated for the desired amount of time, and then 10 μL of stop reagent was added to each well to quench the reaction. The fluorescence was measured in the fluorescent plate reader at excitation and emission wavelengths as recommended, depending on the substrate used.

hERG = molecular target: T2, hERG (Homo sapiens, UniProt Q12809); experiment: hERG competitive binding assay (3H-Astemizole); settings: hERG-CHO membrane, 1 nM 3H-Astemizole
T2 construct: expressed in transfected cells; host or cells: CHO cells (membrane preparation)
Method: The study was carried out to find our cardio safety of the test compounds. Brief procedure: The hERG competitive binding assay performed at a ligand concentration of 1 nM. The test compounds were dissolved in desired volume of 100% DMSO (stock conc. 50 mM). […] The test compound and membrane was pre-incubated for 10 Min at 30° C. 10 μL of ^3H-Astemizole was then added (final concentration of 1 nM), mixed well and incubated additionally for 90 min at 30° C. with mild shaking. At the end of reaction, binding was terminated by rapid filtration onto GF/C glass fiber filter mats, presoaked in 0.3% polyethyleneimine, followed by rapid washing 10 times with ice-cold wash buffer. Captured radiolabel was detected using a liquid scintillation counter. The percent inhibition of the compounds was calculated compared to the vehicle control.

[1] = system: human HDAC (Hela cells nuclear extract); experiment: HDAC activity screening, Hela nuclear extract, Boc-Lys(Ac)-AMC substrate; assay type: biochemical; settings: for HDAC % Inhibition (1 μM): 1 μM compound; for HDAC % Inhibition (10 μM): 10 μM compound
Method: To study the human HDAC inhibition the in-house 96 well plate assay have been established using fluorescent substrate (Boc-Lys (Ac)-AMC Substrate). Hela cells nuclear extract have been used as enzyme source.
Assay was performed in 96-well black microplate and total volume of the assay was 100 μL. Hela nuclear extract was diluted HDAC assay buffer (final concentration of 3.0 μg/mL). Enzyme mixture was made of 10 μL of diluted enzyme and 30 μL of HDAC buffer. 40 μl of enzyme mixture followed by 10 μL of test compound (final concentration from 0.01 to 10 μM) or vehicle (control) was added to each well. The plate was pre-incubated at 37° C. for 10 minutes. The HDAC reaction was started by adding 50 μl of HDAC substrate Boc-Lys (Ac)-AMC (Anaspec, Inc Fremont, Calif., USA). The plate was incubated at 37° C. for 45 minutes. The reaction was stopped by adding 50 μL of Trypsin stop solution and plate further incubated at 37° C. for 15 minutes. Measuring the fluorescence at excitation wavelength of 360 nm and emission wavelength of 460 nm monitored the release of AMC. Buffer alone and substrate alone served as blank.

Caspase-3 = Caspase-3 activity in HT-29 cells; assay type: cell-based; settings: Homo sapiens, 48 hours
Method: Caspase-3 activity was measured in HT-29 cells using Caspase-3 assay kit, (Sigma). HT-29 cells were seeded (10,000 cells/well) in a 96 well plate and incubated overnight. Cells were treated with several concentrations (30, 10, 3, 1, 0.3, 0.1, 0.03, 0.01 μM) of the compounds and incubated for 48 hours and the cells were lysed. Assay was carried out according to the manufacturer's protocol. The fluorescent substrate was added in to the cell lysate and the fluorescence was measured at λexi360 and λemi460.

[2] = Table 1, MTT, 48 hours, read-out: Cell growth inhibition (GI50 in μM) NCI H460
[3] = Table 9, Lung, read-out: Anti-proliferative activity (GI50) NCI-H460
[4] = Table 1, MTT, 48 hours, read-out: Cell growth inhibition (GI50 in μM) PA-1
[5] = Table 9, Ovary, read-out: Anti-proliferative activity (GI50) PA-1
[6] = read-out: IC50 (50% HDAC inhibitory concentration), Table 2, Hela nuclear extract

T2 sequence (Q12809 whole entry): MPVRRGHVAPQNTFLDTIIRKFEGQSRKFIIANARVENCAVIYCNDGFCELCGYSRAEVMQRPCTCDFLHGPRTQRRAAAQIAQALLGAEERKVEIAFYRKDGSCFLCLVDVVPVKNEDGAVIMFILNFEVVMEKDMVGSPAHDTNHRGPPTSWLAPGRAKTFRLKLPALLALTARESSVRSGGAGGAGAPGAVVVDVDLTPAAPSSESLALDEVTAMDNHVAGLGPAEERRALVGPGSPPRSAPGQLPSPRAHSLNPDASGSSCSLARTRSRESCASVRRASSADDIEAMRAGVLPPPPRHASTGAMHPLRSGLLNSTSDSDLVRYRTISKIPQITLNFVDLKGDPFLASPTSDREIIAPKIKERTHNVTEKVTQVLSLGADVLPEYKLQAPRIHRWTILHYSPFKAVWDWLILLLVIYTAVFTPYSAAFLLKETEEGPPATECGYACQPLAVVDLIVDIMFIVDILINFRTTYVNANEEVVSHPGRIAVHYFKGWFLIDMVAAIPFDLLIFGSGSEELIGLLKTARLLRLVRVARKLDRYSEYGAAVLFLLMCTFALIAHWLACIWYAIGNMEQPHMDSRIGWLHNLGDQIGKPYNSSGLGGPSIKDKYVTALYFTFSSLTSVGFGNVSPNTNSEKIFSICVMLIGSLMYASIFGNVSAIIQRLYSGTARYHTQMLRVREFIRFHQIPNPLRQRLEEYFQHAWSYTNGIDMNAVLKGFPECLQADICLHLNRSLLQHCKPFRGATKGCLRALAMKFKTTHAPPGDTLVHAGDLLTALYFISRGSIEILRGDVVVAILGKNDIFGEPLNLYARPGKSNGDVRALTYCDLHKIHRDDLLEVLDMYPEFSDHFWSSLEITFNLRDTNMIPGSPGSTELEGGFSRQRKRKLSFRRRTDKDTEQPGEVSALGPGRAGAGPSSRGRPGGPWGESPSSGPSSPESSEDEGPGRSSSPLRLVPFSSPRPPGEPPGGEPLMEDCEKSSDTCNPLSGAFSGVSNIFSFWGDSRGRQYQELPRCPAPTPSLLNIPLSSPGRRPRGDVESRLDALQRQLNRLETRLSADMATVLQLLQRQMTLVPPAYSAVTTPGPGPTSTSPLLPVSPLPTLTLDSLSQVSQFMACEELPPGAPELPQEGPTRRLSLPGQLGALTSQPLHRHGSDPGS
T1 sequence (P08684 whole entry, canonical isoform): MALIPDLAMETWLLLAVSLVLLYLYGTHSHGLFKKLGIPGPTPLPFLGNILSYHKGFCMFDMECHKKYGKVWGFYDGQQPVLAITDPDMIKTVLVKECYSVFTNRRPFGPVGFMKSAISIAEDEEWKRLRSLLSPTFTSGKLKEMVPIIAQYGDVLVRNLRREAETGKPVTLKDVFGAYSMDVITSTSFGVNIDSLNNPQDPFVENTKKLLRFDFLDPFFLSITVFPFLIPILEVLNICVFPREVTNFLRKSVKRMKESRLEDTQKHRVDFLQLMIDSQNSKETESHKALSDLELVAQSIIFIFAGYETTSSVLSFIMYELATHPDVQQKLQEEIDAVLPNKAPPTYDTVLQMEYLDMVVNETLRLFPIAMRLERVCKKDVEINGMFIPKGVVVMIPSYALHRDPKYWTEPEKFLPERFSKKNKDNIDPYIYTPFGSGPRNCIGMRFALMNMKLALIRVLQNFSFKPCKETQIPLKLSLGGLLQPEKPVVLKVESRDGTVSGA

| Compound | GI50 (NCI-H460; [3]) | GI50 (SK-OV-3) | GI50 (Hela-229) | EC50 (HL-60 (AML) cells) | IC50 (CYP 3A4) | IC50 [1, 6] | EC50 (Caspase-3) | GI50 (NCI-H460; [2]) | GI50 (PA-1; [4]) | GI50 (PA-1; [5]) | IC50 (hERG) | HDAC % Inhibition (1 μM) ([1]; Hela nuclear extract) | HDAC % Inhibition (10 μM) ([1]; Hela nuclear extract) | IC50 ([1]; Table 8, read-out: IC50 (nM) Hela nuclear extract) |
| --- | --- | --- | --- | --- | --- | --- | --- | --- | --- | --- | --- | --- | --- | --- |
| O=C(/C=C/c1ccc(Cn2cc(-c3ccc(CN4CCCC4)cc3)nn2)cc1)NO [Example 16, N-Hydroxy-3-{4-[4-(4-pyrrolidin-1-ylmethyl-phenyl)-[1,2,3]triazol-1-ylmethyl]-phenyl}-acrylamide] | 0.3 ± 0.04 µM | 40 ± 16 nM | 1000 ± 270 nM | 2880 nM | 53.3 µM | 4 nM | 6590 nM | 0.4 µM | 0.09 ± 0.04 µM | 0.08 ± 0.04 µM | > 100 µM | 99% | 100% | – |
| CN(C)Cc1ccc(-c2cn(Cc3ccc(/C=C/C(=O)NO)cc3)nn2)cc1 [Example 21] | 1.9 ± 0.74 µM | 1700 ± 160 nM | 700 ± 470 nM | – | 28.5 µM | 8 nM | 4090 nM | – | 0.11 ± 0.04 µM | 0.1 ± 0.01 µM | 42.6 µM | 98% | 100% | – |
| O=C(NO)c1ccc(Cn2cc(-c3ccc(CN4CCCC4)cc3)nn2)cc1 [Example 8, N-Hydroxy-4-[4-(4-pyrrolidin-1-ylmethyl-phenyl)-[1,2,3]triazol-1-ylmethyl]-benzamide] | 1.9 ± 0.75 µM | 1600 ± 100 nM | 1100 ± 230 nM | 8240 nM | 28.3 µM | 3 nM | 1360 nM | 2.1 µM | 0.15 ± 0.05 µM | 0.1 ± 0.01 µM | 19.9 µM | 95% | 100% | 3 nM |

Continued, in another order:

| GI50 (NCI-H460; [3]) | GI50 (SK-OV-3) | GI50 (Hela-229) | EC50 (HL-60 (AML) cells) | IC50 (CYP 3A4) | IC50 [1, 6] | EC50 (Caspase-3) | Compound | GI50 (NCI-H460; [2]) | GI50 (PA-1; [4]) | GI50 (PA-1; [5]) | IC50 (hERG) | HDAC % Inhibition (1 μM) ([1]; Hela nuclear extract) | HDAC % Inhibition (10 μM) ([1]; Hela nuclear extract) | IC50 ([1]; Table 8, read-out: IC50 (nM) Hela nuclear extract) |
| --- | --- | --- | --- | --- | --- | --- | --- | --- | --- | --- | --- | --- | --- | --- |
| 0.45 ± 0.28 µM | 500 ± 1200 nM | 600 ± 380 nM | 3830 nM | 12.6 µM | 1 nM | 3620 nM | O=C(/C=C/c1cccc(Cn2cc(-c3ccc(CN4CCOCC4)cc3)nn2)c1)NO [Example 25, N-Hydroxy-3-{3-[4-(4-morpholin-4-ylmethyl-phenyl)-[1,2,3]triazol-1-ylmethyl]-phenyl}-acrylamide hydrochloride] | 0.8 µM | 0.04 ± 0.01 µM | 0.04 ± 0.01 µM | > 100 µM | 100% | 101% | – |
| 2.4 ± 0.85 µM | 1800 ± 200 nM | 1400 ± 260 nM | – | 43.2 µM | 57 nM | 1500 nM | O=C(NO)c1ccc(Cn2cc(-c3ccc(CN4CCOCC4)cc3)nn2)cc1 [Example 9, N-Hydroxy-4-[4-(4-morpholin-4-ylmethyl-phenyl)-[1,2,3]triazol-1-ylmethyl]-benzamide] | – | 0.22 ± 0.03 µM | 0.2 ± 0.037 µM | > 100 µM | 91% | 99% | – |
